Results: ChEMBL document CHEMBL5465560, “Selectivity Literature for EUbOPEN Chemogenomic Library” (2024)

Columns and labels:
[1] = target: Ribosomal protein S6 kinase beta-1 (Homo sapiens, UniProt P23443); assay: Selectivity interaction (Millipore kinase profiler) EUB0000124b RPS6KB1; settings: at 10 µM
[2] = target: T1, Serine/threonine-protein kinase ULK3 (Homo sapiens) (UniProt Q6PHR2); assay: Selectivity interaction (KinomeScan (DiscoverX)) EUB0001619a ULK3; settings: at 1 µM
T1 sequence (whole entry): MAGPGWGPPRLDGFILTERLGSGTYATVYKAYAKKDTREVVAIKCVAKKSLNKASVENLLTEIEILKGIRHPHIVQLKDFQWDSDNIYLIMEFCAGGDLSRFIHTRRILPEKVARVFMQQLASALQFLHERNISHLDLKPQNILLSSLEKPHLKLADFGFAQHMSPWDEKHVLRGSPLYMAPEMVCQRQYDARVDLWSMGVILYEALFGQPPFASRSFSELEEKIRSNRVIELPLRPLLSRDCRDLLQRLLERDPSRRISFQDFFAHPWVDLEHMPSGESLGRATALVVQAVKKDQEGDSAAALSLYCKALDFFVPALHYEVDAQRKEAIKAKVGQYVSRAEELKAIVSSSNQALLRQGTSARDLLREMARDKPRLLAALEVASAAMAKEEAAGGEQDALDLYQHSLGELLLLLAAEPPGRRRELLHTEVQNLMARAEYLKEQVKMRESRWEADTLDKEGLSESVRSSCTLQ

[3] = target: Phosphatidylinositol 4-phosphate 3-kinase C2 domain-containing subunit beta (Homo sapiens) (UniProt O00750); assay: Selectivity interaction (KinomeScan (DiscoverX)) EUB0000045b PIK3C2B
[4] = target: Platelet-derived growth factor receptor alpha (Homo sapiens, UniProt P16234); assay: Selectivity interaction (KinomeScan (DiscoverX)) EUB0000045b PDGFRA
[5] = target: Tyrosine-protein kinase Lck (Homo sapiens, UniProt P06239); assay: Selectivity interaction (KinomeScan (DiscoverX)) EUB0000595a LCK; settings: at 10 µM
[6] = target: 5'-AMP-activated protein kinase catalytic subunit alpha-1 (Homo sapiens, UniProt Q13131); assay: Selectivity interaction (KinomeScan (DiscoverX)) EUB0000595a PRKAA1; settings: at 10 µM
[7] = target: Tyrosine-protein kinase CSK (Homo sapiens) (UniProt P41240); assay: Selectivity interaction (Upstate Kinase Profiler service (Millipore)) EUB0000056c CSK; settings: at 1 µM
[8] = target: T2, Ephrin type-B receptor 4 (Homo sapiens) (UniProt P54760); assay: Selectivity interaction (Kinase panel (Invitrogen)) EUB0000639a EPHB4; settings: at 200 nM
T2 sequence (whole entry): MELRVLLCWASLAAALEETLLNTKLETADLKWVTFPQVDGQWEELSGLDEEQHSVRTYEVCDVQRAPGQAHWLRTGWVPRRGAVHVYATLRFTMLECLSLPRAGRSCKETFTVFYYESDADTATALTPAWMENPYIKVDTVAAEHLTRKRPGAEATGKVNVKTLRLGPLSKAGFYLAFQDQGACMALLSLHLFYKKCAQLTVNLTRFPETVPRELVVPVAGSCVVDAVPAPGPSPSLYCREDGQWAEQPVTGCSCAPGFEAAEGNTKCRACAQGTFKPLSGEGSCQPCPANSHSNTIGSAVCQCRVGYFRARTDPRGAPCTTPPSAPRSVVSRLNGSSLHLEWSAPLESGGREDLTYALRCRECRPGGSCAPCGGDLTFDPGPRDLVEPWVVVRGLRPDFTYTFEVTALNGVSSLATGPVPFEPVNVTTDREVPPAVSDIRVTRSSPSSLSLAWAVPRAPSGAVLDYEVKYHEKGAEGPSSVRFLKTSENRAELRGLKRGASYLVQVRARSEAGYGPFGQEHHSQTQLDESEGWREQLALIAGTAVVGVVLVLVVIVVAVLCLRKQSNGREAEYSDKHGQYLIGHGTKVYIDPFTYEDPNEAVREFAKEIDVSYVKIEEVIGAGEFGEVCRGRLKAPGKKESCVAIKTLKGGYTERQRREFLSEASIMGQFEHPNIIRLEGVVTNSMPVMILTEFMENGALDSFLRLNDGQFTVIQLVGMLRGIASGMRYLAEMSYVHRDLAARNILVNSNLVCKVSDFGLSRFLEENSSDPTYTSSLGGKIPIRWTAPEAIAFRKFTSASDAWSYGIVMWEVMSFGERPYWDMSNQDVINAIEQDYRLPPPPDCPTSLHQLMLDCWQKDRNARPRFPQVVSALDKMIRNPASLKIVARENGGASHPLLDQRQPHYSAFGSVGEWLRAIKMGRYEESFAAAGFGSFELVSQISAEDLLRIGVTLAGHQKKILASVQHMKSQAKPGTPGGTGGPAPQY

[9] = target: T3, Protein kinase C iota type (Homo sapiens) (UniProt P41743); assay: Selectivity interaction (ActivX KiNativ screen (kinase selectivity in THP-1 cell lysates)) EUB0000639a PRKCI; type: subcellular; settings: lysate, at 5 µM
T3 sequence (whole entry): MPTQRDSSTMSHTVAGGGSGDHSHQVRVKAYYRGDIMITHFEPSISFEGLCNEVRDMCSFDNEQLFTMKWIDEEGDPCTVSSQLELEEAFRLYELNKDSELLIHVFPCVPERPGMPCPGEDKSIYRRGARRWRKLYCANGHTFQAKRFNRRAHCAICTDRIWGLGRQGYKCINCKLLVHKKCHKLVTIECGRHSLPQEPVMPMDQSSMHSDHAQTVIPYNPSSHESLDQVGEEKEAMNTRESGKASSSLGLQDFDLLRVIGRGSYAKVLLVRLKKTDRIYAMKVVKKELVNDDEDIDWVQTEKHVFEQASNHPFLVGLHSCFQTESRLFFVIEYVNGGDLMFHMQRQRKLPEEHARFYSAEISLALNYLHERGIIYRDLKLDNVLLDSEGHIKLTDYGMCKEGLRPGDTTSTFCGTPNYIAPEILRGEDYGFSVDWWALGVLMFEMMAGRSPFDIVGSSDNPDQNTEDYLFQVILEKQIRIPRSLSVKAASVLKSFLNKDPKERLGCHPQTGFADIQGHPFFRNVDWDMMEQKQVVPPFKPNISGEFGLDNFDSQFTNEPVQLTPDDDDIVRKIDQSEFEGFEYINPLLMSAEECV

[10] = target: Serine/threonine-protein kinase PAK 1 (Homo sapiens) (UniProt Q13153); assay: Selectivity interaction (Kinase screening (Nanosyn)) EUB0000604a PAK1
Chain of Serine/threonine-protein kinase PAK 1 (Homo sapiens) (Q13153 whole entry): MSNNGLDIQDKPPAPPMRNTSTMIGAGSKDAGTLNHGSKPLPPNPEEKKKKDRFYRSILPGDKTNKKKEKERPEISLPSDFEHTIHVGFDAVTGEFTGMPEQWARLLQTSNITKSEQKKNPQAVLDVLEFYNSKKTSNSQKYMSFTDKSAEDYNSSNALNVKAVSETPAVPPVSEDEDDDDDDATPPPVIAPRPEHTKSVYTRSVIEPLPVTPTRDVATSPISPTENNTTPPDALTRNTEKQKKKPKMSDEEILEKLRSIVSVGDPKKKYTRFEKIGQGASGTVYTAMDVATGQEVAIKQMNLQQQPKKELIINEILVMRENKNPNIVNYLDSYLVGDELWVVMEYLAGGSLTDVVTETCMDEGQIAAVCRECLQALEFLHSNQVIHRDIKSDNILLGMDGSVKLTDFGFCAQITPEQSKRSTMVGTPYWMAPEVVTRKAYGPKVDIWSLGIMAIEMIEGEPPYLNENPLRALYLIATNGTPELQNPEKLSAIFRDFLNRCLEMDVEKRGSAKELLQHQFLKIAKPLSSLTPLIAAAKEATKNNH

Chain of Phosphatidylinositol 4-phosphate 3-kinase C2 domain-containing subunit beta (Homo sapiens) (O00750 whole entry, the tested form may be a part): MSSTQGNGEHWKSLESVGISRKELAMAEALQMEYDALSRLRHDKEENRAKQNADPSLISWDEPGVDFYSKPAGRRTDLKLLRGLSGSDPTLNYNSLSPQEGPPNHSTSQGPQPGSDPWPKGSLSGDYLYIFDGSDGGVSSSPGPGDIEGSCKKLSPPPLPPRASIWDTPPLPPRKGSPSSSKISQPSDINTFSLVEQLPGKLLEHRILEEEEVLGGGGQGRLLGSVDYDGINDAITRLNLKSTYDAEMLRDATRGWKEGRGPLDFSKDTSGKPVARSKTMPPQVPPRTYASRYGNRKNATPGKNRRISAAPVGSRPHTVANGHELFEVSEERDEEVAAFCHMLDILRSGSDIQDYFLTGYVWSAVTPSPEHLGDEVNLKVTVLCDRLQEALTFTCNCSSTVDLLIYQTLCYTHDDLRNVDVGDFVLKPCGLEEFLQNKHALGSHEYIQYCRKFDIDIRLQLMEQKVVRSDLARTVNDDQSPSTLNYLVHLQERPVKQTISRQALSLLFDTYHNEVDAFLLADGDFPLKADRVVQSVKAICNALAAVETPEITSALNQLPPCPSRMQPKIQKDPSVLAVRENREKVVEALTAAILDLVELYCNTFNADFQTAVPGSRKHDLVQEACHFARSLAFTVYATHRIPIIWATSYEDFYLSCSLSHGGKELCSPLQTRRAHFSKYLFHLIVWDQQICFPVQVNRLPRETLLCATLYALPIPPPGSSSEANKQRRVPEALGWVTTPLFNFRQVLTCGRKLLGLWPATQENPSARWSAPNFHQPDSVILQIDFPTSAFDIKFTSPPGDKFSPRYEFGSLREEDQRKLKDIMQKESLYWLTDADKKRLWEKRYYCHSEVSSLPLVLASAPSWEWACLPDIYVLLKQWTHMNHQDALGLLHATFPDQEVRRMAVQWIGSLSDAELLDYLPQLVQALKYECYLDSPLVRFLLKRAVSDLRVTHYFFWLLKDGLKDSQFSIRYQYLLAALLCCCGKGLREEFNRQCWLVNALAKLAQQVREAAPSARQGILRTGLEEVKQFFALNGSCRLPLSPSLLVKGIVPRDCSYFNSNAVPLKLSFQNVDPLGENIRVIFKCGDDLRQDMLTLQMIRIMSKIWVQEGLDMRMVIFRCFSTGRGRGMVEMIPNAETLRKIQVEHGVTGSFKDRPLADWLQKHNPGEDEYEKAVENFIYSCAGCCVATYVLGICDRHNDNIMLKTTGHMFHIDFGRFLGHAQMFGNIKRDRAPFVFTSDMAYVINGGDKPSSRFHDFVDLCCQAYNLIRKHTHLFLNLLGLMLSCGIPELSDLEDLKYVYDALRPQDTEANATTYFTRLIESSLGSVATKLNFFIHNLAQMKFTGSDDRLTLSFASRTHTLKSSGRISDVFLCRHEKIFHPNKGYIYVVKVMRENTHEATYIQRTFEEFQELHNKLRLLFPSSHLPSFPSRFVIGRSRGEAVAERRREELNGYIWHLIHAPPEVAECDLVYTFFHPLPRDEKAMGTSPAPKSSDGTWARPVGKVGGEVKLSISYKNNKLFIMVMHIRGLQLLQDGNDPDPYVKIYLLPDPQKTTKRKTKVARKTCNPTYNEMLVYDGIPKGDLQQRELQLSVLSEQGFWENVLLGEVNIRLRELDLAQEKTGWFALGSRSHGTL
Chain of Platelet-derived growth factor receptor alpha (P16234 whole entry): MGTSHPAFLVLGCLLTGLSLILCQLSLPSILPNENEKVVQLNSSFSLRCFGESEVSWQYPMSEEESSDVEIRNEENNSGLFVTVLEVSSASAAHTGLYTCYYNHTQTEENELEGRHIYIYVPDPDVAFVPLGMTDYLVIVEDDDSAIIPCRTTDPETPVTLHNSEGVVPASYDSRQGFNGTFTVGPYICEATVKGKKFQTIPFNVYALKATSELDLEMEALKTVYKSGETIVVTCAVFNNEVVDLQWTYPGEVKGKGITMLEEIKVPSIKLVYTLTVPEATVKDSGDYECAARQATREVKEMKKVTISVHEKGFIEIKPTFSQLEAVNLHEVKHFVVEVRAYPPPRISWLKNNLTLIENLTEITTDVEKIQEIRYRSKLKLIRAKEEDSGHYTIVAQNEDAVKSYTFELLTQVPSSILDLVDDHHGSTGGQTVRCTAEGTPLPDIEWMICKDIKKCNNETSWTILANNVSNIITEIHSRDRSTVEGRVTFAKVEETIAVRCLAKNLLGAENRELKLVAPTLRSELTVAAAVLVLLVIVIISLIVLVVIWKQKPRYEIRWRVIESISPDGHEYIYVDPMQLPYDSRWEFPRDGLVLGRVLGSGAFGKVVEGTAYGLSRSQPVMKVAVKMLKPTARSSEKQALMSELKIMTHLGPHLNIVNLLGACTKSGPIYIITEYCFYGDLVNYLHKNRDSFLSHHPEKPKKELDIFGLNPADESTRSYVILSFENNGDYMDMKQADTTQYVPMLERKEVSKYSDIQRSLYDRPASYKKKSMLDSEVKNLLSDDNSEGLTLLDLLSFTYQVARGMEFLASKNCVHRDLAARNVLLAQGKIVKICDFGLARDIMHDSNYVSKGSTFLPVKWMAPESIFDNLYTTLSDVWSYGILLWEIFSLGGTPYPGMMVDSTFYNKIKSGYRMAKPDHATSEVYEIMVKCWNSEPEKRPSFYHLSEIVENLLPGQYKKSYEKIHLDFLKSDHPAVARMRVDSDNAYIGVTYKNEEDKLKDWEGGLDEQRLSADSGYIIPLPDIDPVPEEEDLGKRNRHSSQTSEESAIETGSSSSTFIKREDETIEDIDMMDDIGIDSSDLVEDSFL
Chain of Tyrosine-protein kinase CSK (Homo sapiens) (P41240 2-450 limits assumed): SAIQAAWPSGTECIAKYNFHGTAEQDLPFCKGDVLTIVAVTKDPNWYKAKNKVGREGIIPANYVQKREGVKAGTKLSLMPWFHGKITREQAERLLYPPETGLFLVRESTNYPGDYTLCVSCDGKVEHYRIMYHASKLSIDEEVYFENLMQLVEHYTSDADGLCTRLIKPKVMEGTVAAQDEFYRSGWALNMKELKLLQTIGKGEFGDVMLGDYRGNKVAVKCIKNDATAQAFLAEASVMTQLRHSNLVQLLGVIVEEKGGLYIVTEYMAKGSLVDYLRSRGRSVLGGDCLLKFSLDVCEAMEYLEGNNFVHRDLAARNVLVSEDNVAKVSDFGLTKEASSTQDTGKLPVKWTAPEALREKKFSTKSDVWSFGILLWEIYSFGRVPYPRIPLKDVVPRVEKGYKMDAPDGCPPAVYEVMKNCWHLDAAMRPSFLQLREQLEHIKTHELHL
Chain of Tyrosine-protein kinase Lck (P06239 2-509 limits assumed): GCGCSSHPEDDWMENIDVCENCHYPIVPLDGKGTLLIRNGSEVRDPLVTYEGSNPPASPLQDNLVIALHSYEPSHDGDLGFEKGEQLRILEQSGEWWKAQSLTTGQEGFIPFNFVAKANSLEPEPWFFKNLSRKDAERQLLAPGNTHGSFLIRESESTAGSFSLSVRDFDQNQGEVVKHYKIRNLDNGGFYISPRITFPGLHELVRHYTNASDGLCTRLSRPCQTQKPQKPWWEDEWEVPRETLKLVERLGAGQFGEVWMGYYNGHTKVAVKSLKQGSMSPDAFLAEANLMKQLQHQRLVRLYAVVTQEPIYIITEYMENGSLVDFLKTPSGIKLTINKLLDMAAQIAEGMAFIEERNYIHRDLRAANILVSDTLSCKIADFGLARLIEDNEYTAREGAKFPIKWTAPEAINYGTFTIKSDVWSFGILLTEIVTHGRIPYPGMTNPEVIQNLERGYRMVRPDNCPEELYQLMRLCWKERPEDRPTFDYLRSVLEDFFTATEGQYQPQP
Chain of 5'-AMP-activated protein kinase catalytic subunit alpha-1 (Q13131 whole entry, looked up): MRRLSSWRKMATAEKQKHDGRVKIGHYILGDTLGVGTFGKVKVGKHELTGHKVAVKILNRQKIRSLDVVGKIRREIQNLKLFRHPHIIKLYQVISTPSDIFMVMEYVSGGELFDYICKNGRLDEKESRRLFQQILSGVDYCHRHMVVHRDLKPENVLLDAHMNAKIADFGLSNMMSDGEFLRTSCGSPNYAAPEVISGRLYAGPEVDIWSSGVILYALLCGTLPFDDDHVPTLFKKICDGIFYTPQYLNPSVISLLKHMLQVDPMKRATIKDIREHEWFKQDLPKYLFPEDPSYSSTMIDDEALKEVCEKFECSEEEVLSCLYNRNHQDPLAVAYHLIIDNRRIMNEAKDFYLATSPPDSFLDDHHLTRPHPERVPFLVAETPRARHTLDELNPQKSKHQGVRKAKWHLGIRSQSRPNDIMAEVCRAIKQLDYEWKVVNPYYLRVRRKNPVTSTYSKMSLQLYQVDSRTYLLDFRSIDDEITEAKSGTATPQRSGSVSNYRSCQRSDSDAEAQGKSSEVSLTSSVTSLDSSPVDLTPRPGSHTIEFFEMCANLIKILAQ

CC(=O)Nc1cccc(-n2c(=O)n(C3CC3)c(=O)c3c(Nc4ccc(I)cc4F)n(C)c(=O)c(C)c32)c1
% of control [1]: 104%

N#Cc1cccc(-c2c[nH]c3ncnc(N4CCOCC4)c23)c1
% of control [2]: 25%

C=CC(=O)Nc1cc(-n2c(=O)ccc3cnc4ccc(-c5ccc(NS(C)(=O)=O)cc5)cc4c32)ccc1C
% of control ([3]; at 1 µM): 100% | % of control ([3]; at 10 µM): 40% | % of control ([4]; at 1 µM): 92% | % of control ([4]; at 10 µM): 100%

COCC(=O)NC/C=C/c1ccc2ncnc(Nc3ccc(Oc4ccc(C)nc4)c(C)c3)c2c1 [CP-724714]
% of control [5]: 59% | % of control [6]: 89%

Cc1ccc(-c2ccc3c(ccc4sc5c(c43)NC[C@@H](C)NC5=O)n2)cn1
% of inhibition [7]: 5%

CC[C@@H]1[C@H](F)C(=O)N[C@@H]1COc1nccc2cc(C(N)=O)c(OC)cc12 [ZIMLOVISERTIB]
% of inhibition [8]: 4.33% | % of inhibition [9]: 14.6%

Cc1cnc(Nc2ccc(F)cc2Cl)nc1-c1c[nH]c(C(=O)N[C@H](CO)c2cccc(Cl)c2)c1
% of inhibition [10]: 3%
